Laboratory results from patent US20120004257A1, “NOVEL COMPOUNDS” (priority 2010, published 2012).
pIC50: −log10 of the molar value. Structures can show the parent of a compound that is named as a salt.

Legend:
Type in all cases: biochemical
[1] = test system: noradrenaline (NA) reuptake in synaptosomes; experiment: NA reuptake inhibition in synaptosomes; conditions: 3H-NA, read-out: NA-uptake IC50
From the text: (§1) Compounds of the invention may be tested for their ability to inhibit reuptake of the monoamines dopamine, noradrenaline and serotonin in synaptosomes e.g. such as described in WO 97/30997 (NeuroSearch A/S) or WO 97/16451 (NeuroSearch A/S). The compounds of the invention may also be tested for their antinociceptive activity e.g. such as described below: Background: formalin injection into the rat hindpaw initiates […] spontaneous nociceptive behaviours consisting of either flinching, and licking and/or biting of the injected paw. The first phase occurs as a direct chemical stimulation of nociceptors, and is followed by a period of relative quiescence called interphase that can be attributed to activation of noxious inhibitory control pathways; primarily 5-HT and NA pathways originating from brainstem nuclei. The second phase occurs as a result of increased primary afferent afferent drive with subsequent sensitization of nociceptive spinal neurones (Coderre et al., 1993). Animals: adult male Sprague-Dawley rats (Harlan Scandinavia, Alleroed, Denmark). The experiments was performed according to the Ethical Guidelines of the International Association for the Study of Pain (Zimmermann, 1983) and the Danish Committee for Experiments on Animals. […] MED and ED50 values were calculated where possible. Data (mean+/−SEM) were analyzed using one way ANOVA followed by Bonferonni's t test. […]

[2] = test system: serotonine (5-HT) reuptake in synaptosomes; experiment: 5-HT reuptake inhibition in synaptosomes; conditions: 3H-5-HT, read-out: 5-HT-uptake IC50
From the text: as §1

[3] = test system: dopamine (DA) reuptake in synaptosomes; experiment: DA reuptake inhibition in synaptosomes; conditions: 3H-DA, read-out: DA-uptake IC50
From the text: as §1

CCc1cc2ccc(O[C@@H]3C[C@H]4CC[C@@H](C3)N4)cc2oc1=O [Compound 1.1, exo-7-[(8-Aza-bicyclo[3.2.1]oct-3-yl)oxy]-3-ethyl-chromen-2-one hydrochloride]
pIC50 [1]: 7.33 | pIC50 [2]: 8.11 | pIC50 [3]: 6.30
